Test results as given in PMC9014415, “Repositioning of a Diaminothiazole Series Confirmed to Target the Cyclin-Dependent Kinase CRK12 for Use in the Treatment of African Animal Trypanosomiasis” (Journal of Medicinal Chemistry, 2022).

Molecular target: T1, Phosphoglycerate kinase (PGK) (Trypanosoma brucei brucei, UniProt P07378)
T1 construct: endogenous in cells; host or cells: Trypanosoma brucei procyclic form, whole-cell lysate
Experiment: SILAC pull-down with resin-bound 13, competition by compound 2
Type: binding
Details: procyclic lysate; compound 2 10 μM vs DMSO; mean of three experiments
Protocol: Chemical proteomic studies were carried out by immobilizing an analogue of compound 2 (probe 13; Figure 3A and Scheme 4) to magnetic beads via a polyethyleneglycol (PEG) linker. Appropriate attachment sites for the PEG linker were informed by the established structure–activity relationships within this series, and an advanced intermediate toward the final derivatized compound was screened against both bloodstream and procyclic forms of T. brucei to ensure that it retained potency. The analogue was immobilized by attachment to NHS-ester-activated paramagnetic beads. Activated beads were then incubated in SILAC (stable isotope labeling by amino acids in cell culture)-labeled T. brucei procyclic whole-cell lysates in the presence or absence of compound 2 (10 μM) with either “light-“ or “heavy”-labeled lysate. After combining the eluates from the beads and performing proteomic analyses, proteins that bound specifically to the diaminothiazole pharmacophore were distinguished from proteins that bound non-specifically to the beads by virtue of compound 2:DMSO tryptic peptide isotope ratios. As a result of these studies, four kinases and a cyclin were identified as specific binders of the compound 2-derivatized beads (Figure 3B and Table S11). It should be noted that of the four kinases identified, only CRK12 has been established as essential for survival of T. brucei.[14] […]

T1 sequence (P07378 whole entry): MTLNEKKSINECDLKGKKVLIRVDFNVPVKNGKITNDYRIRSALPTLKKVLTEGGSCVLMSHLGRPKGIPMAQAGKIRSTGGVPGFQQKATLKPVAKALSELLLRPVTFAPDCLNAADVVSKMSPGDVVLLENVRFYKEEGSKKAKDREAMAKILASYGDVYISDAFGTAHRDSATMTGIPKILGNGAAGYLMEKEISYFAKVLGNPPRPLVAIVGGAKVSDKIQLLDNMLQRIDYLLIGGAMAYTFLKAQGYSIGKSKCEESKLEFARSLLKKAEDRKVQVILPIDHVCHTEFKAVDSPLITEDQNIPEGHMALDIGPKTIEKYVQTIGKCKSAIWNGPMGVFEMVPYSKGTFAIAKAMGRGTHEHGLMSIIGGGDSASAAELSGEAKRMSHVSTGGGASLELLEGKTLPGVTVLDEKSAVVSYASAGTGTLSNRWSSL

CC(C)CS(=O)(=O)N[C@H]1CC[C@H](Nc2nc(N)c(C(=O)c3c(F)cc(CN(C)C)cc3F)s2)CC1 [Compound 2, N-(trans)-[4-[[4-Amino-5-[4-(dimethylaminomethyl)-2,6-difluoro-benzoyl]thiazol-2-yl]amino]cyclohexyl]-2-methyl-propane-1-sulfonamide]
Log2 ratio DMSO/compound: 1.92
